Source: patent publication US20180271873A1, “METHODS FOR TREATING VIRAL INFECTIONS” (priority 2015, published 2018)

The molecules below were run on GFP-expressing Zaire Ebolavirus Mayinga-GFP (assay: microbe, parasite or virus in culture). Settings: HeLa, read-out: Activity (Biological activity, EC50).
Format: cell-based

SMILES | EC50 [µM]
Cc1cccc(/C=N/Nc2cc(N3CCN(C)CC3)nc(OCCc3ccccn3)n2)c1 [Compound 42, (E)-4-(2-(3-Methylbenzylidene)hydrazinyl)-6-(4-methylpiperazin-1-yl)-2-(2-(pyridin-2-yl)ethoxy)pyrimidine] | > 50
Cc1cccc(/C=N/Nc2cc(N3CCCOCC3)nc(OCCc3ccccn3)n2)c1 [Compound 35, (E)-4-(6-(2-(3-Methylbenzylidene)hydrazinyl)-2-(2-(pyridin-2-yl)ethoxy)pyrimidin-4-yl)-1,4-oxazepane] | 1 to 50
Cc1cccc(/C=N/Nc2cc(C3CCOCC3)nc(OCCc3ccccn3)n2)c1 [Compound 41, (E)-4-(2-(3-Methylbenzylidene)hydrazinyl)-2-(2-(pyridin-2-yl)ethoxy)-6-(tetrahydro-2H-pyran-4-yl)pyrimidine] | > 50
CCCN(CCC)c1cc(N/N=C/c2cccc(C)c2)nc(OCCc2ncccn2)n1 [Compound 24, (E)-6-(2-(3-Methylbenzylidene)hydrazinyl)-N,N-dipropyl-2-(2-(pyrimidin-2-yl)ethoxy)pyrimidin-4-amine] | > 50
Cc1cccc(/C=N/Nc2cc(N3CCOCC3)nc(-c3cccc(O)c3)n2)c1 [Compound 27, (E)-3-(4-(2-(3-Methylbenzylidene)hydrazinyl)-6-morpholinopyrimidin-2-yl)phenol] | 1 to 50
N#Cc1cccc(/C=N/Nc2cc(N3CCOCC3)nc(OCCc3ccccn3)n2)c1 [Compound 48, (E)-3-((2-(6-Morpholino-2-(2-(pyridin-2-yl)ethoxy)pyrimidin-4-yl)hydrazono)methyl)benzonitrile] | 1 to 50
Cc1cccc(/C=N/Nc2cc(N3CCOCC3)nc(NCc3ccccn3)n2)c1 [Compound 18, (E)-4-(2-(3-Methylbenzylidene)hydrazinyl)-6-morpholino-N-(pyridin-2-ylmethyl)pyrimidin-2-amine] | < 1
Cc1ccccc1/C=N/Nc1cc(N2CCOCC2)nc(OCCc2ccccn2)n1 [Compound 10, (E)-4-(6-(2-(2-Methylbenzylidene)hydrazinyl)-2-(2-(pyridin-2-yl)ethoxy)pyrimidin-4-yl)morpholine] | < 1
Cc1cccc(/C=N/Nc2cc(N3CCSCC3)nc(OCCc3ccccn3)n2)c1 [Compound 26, (E)-4-(6-(2-(3-Methylbenzylidene)hydrazinyl)-2-(2-(pyridin-2-yl)ethoxy)pyrimidin-4-yl)thiomorpholine] | 1 to 50
Cc1cnc(COc2nc(N/N=C/c3cccc(C)c3)cc(N3CCOCC3)n2)nc1 [Compound 58, (E)-4-(6-(2-(3-Methylbenzylidene)hydrazinyl)-2-((5-methylpyrimidin-2-yl)methoxy)pyrimidin-4-yl)morpholine] | < 1
Cc1cccc(/C=N/Nc2cc(N3CCOCC3)nc(OCC(C)(C)c3ccccc3)n2)c1 [Compound 36, (E)-4-(2-(2-Methyl-2-phenylpropoxy)-6-(2-(3-methylbenzylidene)hydrazinyl)pyrimidin-4-yl)morpholine] | 1 to 50
Cc1cccc(/C=N/Nc2cc(N3CCOCC3)nc(Oc3ccccc3)n2)c1 [Compound 51, (E)-4-(6-(2-(3-Methylbenzylidene)hydrazinyl)-2-phenoxypyrimidin-4-yl)morpholine] | < 1
CS(=O)(=O)c1cccc(/C=N/Nc2cc(N3CCOCC3)nc(OCCc3ccccn3)n2)c1 [Compound 61, (E)-4-(6-(2-(3-(Methylsulfonyl)benzylidene)hydrazinyl)-2-(2-(pyridin-2-yl)ethoxy)pyrimidin-4-yl)morpholine] | > 50
Cc1cccc(/C=N/Nc2cc(N3CCOCC3)nc(Oc3ccc4ncc(F)cc4c3)n2)c1 [Compound 67, (E)-4-(2-(3-Fluoroquinolin-6-yloxy)-6-(2-(3-methylbenzylidene)hydrazinyl)pyrimidin-4-yl)morpholine] | < 1
Cc1cccc(/C=N/Nc2cc(N3CCOCC3)nc(Oc3ccc4nccc(Cl)c4c3)n2)c1 [Compound 63, (E)-4-(2-(4-Chloroquinolin-6-yloxy)-6-(2-(3-methylbenzylidene)hydrazinyl)pyrimidin-4-yl)morpholine] | < 1
